Measured values: patent EP4745137A1 (Gluetacs Therapeutics (Shanghai) Co., Ltd., priority 2023, dated 2025)
pIC50: −log10 of the molar value.

Assays:
GSPT1 = target: T1, GSPT1 (Homo sapiens, UniProt P15170+Q96SW2); experiment: Western-blot assay of substrate protein degradation in hPBMCs, GSPT1; assay type: cell-based; conditions: 24 hours of compound treatment
T1 construct: endogenous in cells; host or cells: hPBMCs (Milecell Biotechnologies)

WEE1 = target: T2, WEE1 (Homo sapiens, UniProt P30291+Q96SW2); experiment: Western-blot assay of substrate protein degradation in hPBMCs, WEE1; assay type: cell-based; conditions: 24 hours of compound treatment
T2 construct: endogenous in cells; host or cells: hPBMCs (Milecell Biotechnologies)

CK1α = target: T3, CK1α (Homo sapiens, UniProt P48729+Q96SW2); experiment: Western-blot assay of substrate protein degradation in hPBMCs, CK1α; assay type: cell-based; conditions: 24 hours of compound treatment
T3 construct: endogenous in cells; host or cells: hPBMCs (Milecell Biotechnologies)
T3 sequence (P48729 whole entry): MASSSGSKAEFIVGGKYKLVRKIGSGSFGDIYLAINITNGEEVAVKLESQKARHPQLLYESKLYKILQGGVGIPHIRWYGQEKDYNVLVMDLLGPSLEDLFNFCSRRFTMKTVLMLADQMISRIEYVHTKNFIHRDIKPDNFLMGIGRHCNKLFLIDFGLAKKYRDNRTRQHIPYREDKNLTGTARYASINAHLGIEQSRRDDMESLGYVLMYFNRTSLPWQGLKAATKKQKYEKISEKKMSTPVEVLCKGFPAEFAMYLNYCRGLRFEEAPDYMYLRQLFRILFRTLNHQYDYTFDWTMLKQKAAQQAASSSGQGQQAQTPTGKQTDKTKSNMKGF
T3 sequence (Q96SW2 whole entry): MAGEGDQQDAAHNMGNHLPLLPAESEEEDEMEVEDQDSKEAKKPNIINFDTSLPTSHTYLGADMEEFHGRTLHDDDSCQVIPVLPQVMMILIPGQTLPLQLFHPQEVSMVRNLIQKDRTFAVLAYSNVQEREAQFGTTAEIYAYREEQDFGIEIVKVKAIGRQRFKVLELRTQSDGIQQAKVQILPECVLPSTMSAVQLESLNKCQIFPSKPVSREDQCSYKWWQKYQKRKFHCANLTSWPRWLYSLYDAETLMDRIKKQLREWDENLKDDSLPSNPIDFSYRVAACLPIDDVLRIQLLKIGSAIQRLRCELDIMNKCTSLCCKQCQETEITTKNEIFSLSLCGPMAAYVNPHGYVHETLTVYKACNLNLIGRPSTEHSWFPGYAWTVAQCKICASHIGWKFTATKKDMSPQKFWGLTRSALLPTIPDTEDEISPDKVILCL
T3 sequence (Q16531 whole entry partner): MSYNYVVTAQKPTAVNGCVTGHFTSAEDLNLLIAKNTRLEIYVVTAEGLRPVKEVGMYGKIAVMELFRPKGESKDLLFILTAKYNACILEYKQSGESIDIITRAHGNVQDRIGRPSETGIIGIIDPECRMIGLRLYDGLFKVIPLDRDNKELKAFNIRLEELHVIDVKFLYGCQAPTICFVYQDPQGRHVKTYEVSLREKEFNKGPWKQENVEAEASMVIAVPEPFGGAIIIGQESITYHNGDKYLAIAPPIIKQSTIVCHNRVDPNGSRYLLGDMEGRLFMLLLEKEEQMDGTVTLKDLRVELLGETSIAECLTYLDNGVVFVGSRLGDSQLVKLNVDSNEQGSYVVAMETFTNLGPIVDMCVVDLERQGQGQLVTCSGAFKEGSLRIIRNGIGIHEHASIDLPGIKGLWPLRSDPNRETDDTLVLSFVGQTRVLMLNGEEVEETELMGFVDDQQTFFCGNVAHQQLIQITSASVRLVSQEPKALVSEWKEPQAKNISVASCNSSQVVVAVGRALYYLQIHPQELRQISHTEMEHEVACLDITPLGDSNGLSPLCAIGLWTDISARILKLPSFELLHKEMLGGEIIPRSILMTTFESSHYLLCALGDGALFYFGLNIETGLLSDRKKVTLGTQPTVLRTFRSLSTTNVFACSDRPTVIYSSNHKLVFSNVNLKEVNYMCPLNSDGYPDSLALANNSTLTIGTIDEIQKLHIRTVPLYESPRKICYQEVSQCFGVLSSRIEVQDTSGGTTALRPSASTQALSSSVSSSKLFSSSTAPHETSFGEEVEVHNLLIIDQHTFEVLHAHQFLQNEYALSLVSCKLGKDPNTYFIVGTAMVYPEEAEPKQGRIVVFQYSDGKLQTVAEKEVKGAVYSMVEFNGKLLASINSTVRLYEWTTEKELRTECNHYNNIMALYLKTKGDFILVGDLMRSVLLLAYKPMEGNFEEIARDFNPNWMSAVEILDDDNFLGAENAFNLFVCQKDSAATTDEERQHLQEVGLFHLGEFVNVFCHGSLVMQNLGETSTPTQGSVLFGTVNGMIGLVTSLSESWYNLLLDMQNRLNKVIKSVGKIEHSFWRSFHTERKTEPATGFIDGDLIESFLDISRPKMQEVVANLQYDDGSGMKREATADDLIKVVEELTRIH

IKZF3 = target: T4, IKZF3 (Homo sapiens, UniProt Q96SW2+Q9UKT9); experiment: Western-blot assay of substrate protein degradation in hPBMCs, IKZF3; assay type: cell-based; conditions: 24 hours of compound treatment
T4 construct: endogenous in cells; host or cells: hPBMCs (Milecell Biotechnologies)
T4 sequence (Q9UKT9 whole entry): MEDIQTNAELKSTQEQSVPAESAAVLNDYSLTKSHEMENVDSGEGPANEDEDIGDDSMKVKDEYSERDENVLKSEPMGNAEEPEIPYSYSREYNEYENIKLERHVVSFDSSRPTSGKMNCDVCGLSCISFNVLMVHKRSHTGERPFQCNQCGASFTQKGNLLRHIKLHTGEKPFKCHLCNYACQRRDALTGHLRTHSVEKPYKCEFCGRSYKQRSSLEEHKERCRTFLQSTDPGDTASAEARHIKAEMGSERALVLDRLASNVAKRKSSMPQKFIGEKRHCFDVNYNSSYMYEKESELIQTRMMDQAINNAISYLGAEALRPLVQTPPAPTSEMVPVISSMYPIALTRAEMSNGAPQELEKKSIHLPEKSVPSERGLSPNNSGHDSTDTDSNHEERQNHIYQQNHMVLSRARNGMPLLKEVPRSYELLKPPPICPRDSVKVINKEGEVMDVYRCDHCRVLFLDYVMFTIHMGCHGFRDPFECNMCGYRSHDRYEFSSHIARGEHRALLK
T4 sequence (Q96SW2 whole entry): as the sequence (Q96SW2 whole entry) above
T4 sequence (Q16531 whole entry partner): as the sequence (Q16531 whole entry partner) above

IKZF1 = target: T5, IKZF1 (Homo sapiens, UniProt Q13422+Q96SW2); experiment: Western-blot assay of substrate protein degradation in hPBMCs, IKZF1; assay type: cell-based; conditions: 24 hours of compound treatment
T5 construct: endogenous in cells; host or cells: hPBMCs (Milecell Biotechnologies)
T5 sequence (Q13422 whole entry): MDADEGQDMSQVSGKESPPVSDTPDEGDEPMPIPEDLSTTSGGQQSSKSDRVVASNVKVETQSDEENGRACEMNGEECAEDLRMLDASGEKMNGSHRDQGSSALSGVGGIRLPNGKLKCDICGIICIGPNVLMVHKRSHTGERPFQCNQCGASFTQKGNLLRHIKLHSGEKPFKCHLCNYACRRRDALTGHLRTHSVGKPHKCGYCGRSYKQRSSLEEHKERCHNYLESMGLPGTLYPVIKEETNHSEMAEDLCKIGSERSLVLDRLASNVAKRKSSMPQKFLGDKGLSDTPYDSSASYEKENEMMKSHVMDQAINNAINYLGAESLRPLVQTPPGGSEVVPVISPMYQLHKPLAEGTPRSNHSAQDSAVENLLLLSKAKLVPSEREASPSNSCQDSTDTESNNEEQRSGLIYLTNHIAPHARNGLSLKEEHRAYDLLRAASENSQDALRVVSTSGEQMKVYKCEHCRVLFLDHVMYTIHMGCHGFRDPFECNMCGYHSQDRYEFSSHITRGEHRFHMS
T5 sequence (Q96SW2 whole entry): as the sequence (Q96SW2 whole entry) above
T5 sequence (Q16531 whole entry partner): as the sequence (Q16531 whole entry partner) above

[1] = target: T6, human Cereblon WT GST-tagged protein (Homo sapiens, UniProt Q96SW2); experiment: CRBN-binding affinity by HTRF (CEREBLON BINDING kit); conditions: HTRF inhibitory activity, CEREBLON BINDING kit; read-out: HTRF IC50
T6 construct: purchased CISBIO 64BDCRBNPEH
T6 sequence (Q96SW2 whole entry): as the sequence (Q96SW2 whole entry) above

[2] = tested on: Human acute T lymphocytic leukemia cells (Molt-4); experiment: Tumor cell proliferation inhibition (CellTiter-Meiluncell Luminescent Cell Viability Assay), Molt-4; conditions: MOLT-4, 96 h, read-out: inhibitory activity (IC50, nM) against tumor cells proliferation, Molt 4
IKZF2 = target: T7, IKZF2 (Homo sapiens, UniProt Q96SW2+Q9UKS7); experiment: Western-blot assay of substrate protein degradation in hPBMCs, IKZF2; assay type: cell-based; conditions: 24 hours of compound treatment
T7 construct: endogenous in cells; host or cells: hPBMCs (Milecell Biotechnologies)
T7 sequence (Q9UKS7 whole entry): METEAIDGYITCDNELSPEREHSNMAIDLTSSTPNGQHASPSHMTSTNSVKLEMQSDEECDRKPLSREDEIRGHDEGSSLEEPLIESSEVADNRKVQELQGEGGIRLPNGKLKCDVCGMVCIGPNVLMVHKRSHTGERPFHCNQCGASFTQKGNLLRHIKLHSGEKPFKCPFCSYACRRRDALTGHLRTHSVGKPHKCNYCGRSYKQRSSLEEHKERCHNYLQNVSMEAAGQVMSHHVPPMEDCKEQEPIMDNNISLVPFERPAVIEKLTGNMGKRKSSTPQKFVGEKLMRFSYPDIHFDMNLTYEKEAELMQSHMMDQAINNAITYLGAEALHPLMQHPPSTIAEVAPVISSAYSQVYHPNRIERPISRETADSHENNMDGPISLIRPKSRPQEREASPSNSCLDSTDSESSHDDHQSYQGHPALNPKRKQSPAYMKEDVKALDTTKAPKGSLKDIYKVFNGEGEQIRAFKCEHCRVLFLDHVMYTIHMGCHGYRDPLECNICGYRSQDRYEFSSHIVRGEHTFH
T7 sequence (Q96SW2 whole entry): as the sequence (Q96SW2 whole entry) above
T7 sequence (Q16531 whole entry partner): as the sequence (Q16531 whole entry partner) above

[3] = compounds tested at 50 nM and 500 nM (concentration of the table not stated)
[4] = 50 nM and 500 nM tested (concentration behind the class not stated)

T1 sequence (P15170 whole entry): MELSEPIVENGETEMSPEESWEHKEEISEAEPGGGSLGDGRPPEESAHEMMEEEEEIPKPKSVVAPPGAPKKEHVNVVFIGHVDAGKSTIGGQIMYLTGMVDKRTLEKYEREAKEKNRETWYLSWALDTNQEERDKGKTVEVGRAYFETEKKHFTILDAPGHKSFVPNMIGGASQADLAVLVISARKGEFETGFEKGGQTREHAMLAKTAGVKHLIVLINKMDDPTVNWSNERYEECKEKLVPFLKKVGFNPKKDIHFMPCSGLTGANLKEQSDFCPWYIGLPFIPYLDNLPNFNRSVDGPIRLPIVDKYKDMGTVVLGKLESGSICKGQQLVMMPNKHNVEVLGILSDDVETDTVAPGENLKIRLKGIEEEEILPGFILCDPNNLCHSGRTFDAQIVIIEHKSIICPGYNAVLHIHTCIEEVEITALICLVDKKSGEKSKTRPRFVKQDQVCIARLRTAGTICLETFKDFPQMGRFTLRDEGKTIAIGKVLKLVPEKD
T1 sequence (Q96SW2 whole entry): as the sequence (Q96SW2 whole entry) above
T1 sequence (Q16531 whole entry partner): as the sequence (Q16531 whole entry partner) above

Row | SMILES | pIC50 [1] | IC50 [2] [nM] | GSPT1 substrate protein remaining % (GSPT1; [3]) | Weel substrate protein remaining % (WEE1; [3]) | CK1a substrate protein remaining % (CK1α; [3]) | IKZF3 substrate protein remaining % (IKZF3; [3]) | IKZF 1 substrate protein remaining % (IKZF1; [3]) | IKZF2 substrate protein remaining % (IKZF2; [3]) | GSPT1 substrate protein remaining % (GSPT1; [4]) | Weel substrate protein remaining % (WEE1; [4]) | CK1a substrate protein remaining % (CK1α; [4]) | IKZF3 substrate protein remaining % (IKZF3; [4]) | IKZF 1 substrate protein remaining % (IKZF1; [4]) | IKZF2 substrate protein remaining % (IKZF2; [4])
1 | Cc1ccsc1N1CCN(Cc2ccc3c(c2)CN(C2CCC(=O)NC2=O)C3=O)CC1 (stereo not drawn) [GT-04582, 3-(5-((4-(3-methylthiophen-2-yl)piperazin-1-yl)methyl)-1-oxoisoindolin-2-yl)piperidine-2,6-dione] | > 6.30 | 50 to 100 | A (0% ≤ substrate protein remaining % ≤ 80%) | A (0% ≤ substrate protein remaining % ≤ 80%) | B (80%< substrate protein remaining %≤ 100%) | A (0% ≤ substrate protein remaining % ≤ 80%) | A (0% ≤ substrate protein remaining % ≤ 80%) | A (0% ≤ substrate protein remaining % ≤ 80%) |  |  |  |  |  | 
2 | O=C1CCC(N2Cc3cc(CN4CCN(c5nccc(Cl)c5F)CC4)ccc3C2=O)C(=O)N1 (stereo not drawn) [GT-04610, 3-(5-((4-(4-chloro-3-fluoropyridin-2-yl)piperazin-1-yl)methyl)-1-oxoisoindolin-2-yl)piperidine-2,6-dione] | 6.00 to 6.30 | 500 to 1000 | A (0% ≤ substrate protein remaining % ≤ 80%) | A (0% ≤ substrate protein remaining % ≤ 80%) | A (0% ≤ substrate protein remaining % ≤ 80%) | A (0% ≤ substrate protein remaining % ≤ 80%) | A (0% ≤ substrate protein remaining % ≤ 80%) | A (0% ≤ substrate protein remaining % ≤ 80%) |  |  |  |  |  | 
3 | O=C1CCC(N2Cc3cc(CN4CCC(c5ccco5)CC4)ccc3C2=O)C(=O)N1 (stereo not drawn) [GT-04618, 3-(5-((4-(furan-2-yl)piperidin-1-yl)methyl)-1-oxoisoindolin-2-yl)piperidine-2,6-dione] | 6.00 to 6.30 | 50 to 100 | A (0% ≤ substrate protein remaining % ≤ 80%) | A (0% ≤ substrate protein remaining % ≤ 80%) | B (80%< substrate protein remaining %≤ 100%) | A (0% ≤ substrate protein remaining % ≤ 80%) | A (0% ≤ substrate protein remaining % ≤ 80%) | A (0% ≤ substrate protein remaining % ≤ 80%) |  |  |  |  |  | 
4 | O=C1CCC(N2Cc3cc(CN4CC(c5ccnc6cc(F)ccc56)C4)ccc3C2=O)C(=O)N1 (stereo not drawn) [GT-04651, 3-(5-((3-(7-fluoroquinolin-4-yl)azetidin-1-yl)methyl)-1-oxoisoindolin-2-yl)piperidine-2,6-dione] | > 6.30 | 500 to 1000 | A (0% ≤ substrate protein remaining % ≤ 80%) | B (80%< substrate protein remaining %≤ 100%) | A (0% ≤ substrate protein remaining % ≤ 80%) | A (0% ≤ substrate protein remaining % ≤ 80%) | A (0% ≤ substrate protein remaining % ≤ 80%) | A (0% ≤ substrate protein remaining % ≤ 80%) |  |  |  |  |  | 
5 | O=C1CCC(N2Cc3cc(CN4CCC(c5cccc6c(F)cccc56)CC4)ccc3C2=O)C(=O)N1 (stereo not drawn) [GT-04664, 3-(5-((4-(5-fluoronaphthalen-1-yl)piperidin-1-yl)methyl)-1-oxoisoindolin-2-yl)piperidine-2,6-dione] | 6.00 to 6.30 | 100 to 500 | A (0% ≤ substrate protein remaining % ≤ 80%) | A (0% ≤ substrate protein remaining % ≤ 80%) | A (0% ≤ substrate protein remaining % ≤ 80%) | A (0% ≤ substrate protein remaining % ≤ 80%) | A (0% ≤ substrate protein remaining % ≤ 80%) | A (0% ≤ substrate protein remaining % ≤ 80%) |  |  |  |  |  | 
6 | Cc1ccsc1C1=CCN(Cc2cccc3c2C(=O)N(C2CCC(=O)NC2=O)C3=O)CC1 (stereo not drawn) [GT-04731, 2-(2,6-dioxopiperidin-3-yl)-4-((4-(3-methylthiophen-2-yl)-3,6-dihydropyridin-1(2H)-yl)methyl)isoindoline-1,3-dione] |  | 500 to 1000 | A (0% ≤ substrate protein remaining % ≤ 80%) | B (80%< substrate protein remaining %≤ 100%) | B (80%< substrate protein remaining %≤ 100%) | B (80%< substrate protein remaining %≤ 100%) | B (80%< substrate protein remaining %≤ 100%) | B (80%< substrate protein remaining %≤ 100%) |  |  |  |  |  | 
7 | CC1(C)[C@@H]2CC[C@]1(CS(=O)(=O)NCc1ccc3c(c1)CN(C1CCC(=O)NC1=O)C3=O)C(=O)C2 (stereo partly drawn) [GT-06927] | 6.00 to 6.30 |  |  |  |  |  |  |  | B (80%< substrate protein remaining %≤ 100%) | B (80%< substrate protein remaining %≤ 100%) | A (0% ≤ substrate protein remaining % ≤ 80%) | B (80%< substrate protein remaining %≤ 100%) | B (80%< substrate protein remaining %≤ 100%) | B (80%< substrate protein remaining %≤ 100%)

Now from value to compound, other results behind:

Row | pIC50 [1] | IC50 [2] [nM] | SMILES | GSPT1 substrate protein remaining % (GSPT1; [3]) | Weel substrate protein remaining % (WEE1; [3]) | CK1a substrate protein remaining % (CK1α; [3]) | IKZF3 substrate protein remaining % (IKZF3; [3]) | IKZF 1 substrate protein remaining % (IKZF1; [3]) | IKZF2 substrate protein remaining % (IKZF2; [3]) | GSPT1 substrate protein remaining % (GSPT1; [4]) | Weel substrate protein remaining % (WEE1; [4]) | CK1a substrate protein remaining % (CK1α; [4]) | IKZF3 substrate protein remaining % (IKZF3; [4]) | IKZF 1 substrate protein remaining % (IKZF1; [4]) | IKZF2 substrate protein remaining % (IKZF2; [4])
8 | 6.00 to 6.30 | 100 to 500 | Cc1csc2ncnc(C3=CCN(Cc4ccc5c(c4)CN(C4CCC(=O)NC4=O)C5=O)CC3)c12 (stereo not drawn) [GT-04703, 3-(5-((4-(5-methylthieno[2,3-d]pyrimidin-4-yl)-3,6-dihydropyridin-1(2H)-yl)methyl)-1-oxoisoindolin-2-yl)piperidine-2,6-dione] | A (0% ≤ substrate protein remaining % ≤ 80%) | B (80%< substrate protein remaining %≤ 100%) | A (0% ≤ substrate protein remaining % ≤ 80%) | A (0% ≤ substrate protein remaining % ≤ 80%) | A (0% ≤ substrate protein remaining % ≤ 80%) | A (0% ≤ substrate protein remaining % ≤ 80%) |  |  |  |  |  | 
9 | 6.00 to 6.30 |  | Cc1nc(C2=CCN(Cc3ccc4c(c3)C(=O)N(C3CCC(=O)NC3=O)C4=O)CC2)c2c(-c3ccccc3)csc2n1 (stereo not drawn) [GT-06677, 2-(2,6-dioxopiperidin-3-yl)-5-((4-(2-methyl-5-phenylthieno[2,3-d]pyrimidin-4-yl)-3,6-dihydropyridin-1(2H)-yl)methyl)isoindoline-1,3-dione] |  |  |  |  |  |  | B (80%< substrate protein remaining %≤ 100%) | B (80%< substrate protein remaining %≤ 100%) | A (0% ≤ substrate protein remaining % ≤ 80%) | B (80%< substrate protein remaining %≤ 100%) | B (80%< substrate protein remaining %≤ 100%) | B (80%< substrate protein remaining %≤ 100%)
10 | 5.72 to 5.82 |  | Cc1nc(C2=CCN(Cc3ccc4c(c3)C(=O)N(C3CCC(=O)NC3=O)C4=O)CC2)c2c3c(sc2n1)CCC3 (stereo not drawn) [GT-06682, 2-(2,6-dioxopiperidin-3-yl)-5-((4-(2-methyl-6,7-dihydro-5H-cyclopenta[4,5]thieno[2,3-d]pyrimidin-4-yl)-3,6-dihydropyridin-1(2H)-yl)methyl)isoindoline-1,3-dione] |  |  |  |  |  |  | A (0% ≤ substrate protein remaining % ≤ 80%) | A (0% ≤ substrate protein remaining % ≤ 80%) | B (80%< substrate protein remaining %≤ 100%) | A (0% ≤ substrate protein remaining % ≤ 80%) | B (80%< substrate protein remaining %≤ 100%) | A (0% ≤ substrate protein remaining % ≤ 80%)
11 | 5.72 to 5.82 |  | O=C1CCC(N2C(=O)c3ccc(CN4CCC(c5c[nH]c6ncccc56)CC4)cc3C2=O)C(=O)N1 (stereo not drawn) [GT-06705, 5-((4-(1H-pyrrolo[2,3-b]pyridin-3-yl)piperidin-1-yl)methyl)-2-(2,6-dioxopiperidin-3-yl)isoindoline-1,3-dione] |  |  |  |  |  |  | A (0% ≤ substrate protein remaining % ≤ 80%) | A (0% ≤ substrate protein remaining % ≤ 80%) | B (80%< substrate protein remaining %≤ 100%) | B (80%< substrate protein remaining %≤ 100%) | B (80%< substrate protein remaining %≤ 100%) | B (80%< substrate protein remaining %≤ 100%)
12 | 5.72 to 5.82 |  | O=C1CCC(N2Cc3cc(CNC45CC6CC(CC(C6)C4)C5)ccc3C2=O)C(=O)N1 (stereo not drawn) [GT-06913, 3-(5-((((3s,5s,7s)-adamantan-1-yl)amino)methyl)-1-oxoisoindolin-2-yl)piperidine-2,6-dione] |  |  |  |  |  |  | A (0% ≤ substrate protein remaining % ≤ 80%) | A (0% ≤ substrate protein remaining % ≤ 80%) | A (0% ≤ substrate protein remaining % ≤ 80%) | B (80%< substrate protein remaining %≤ 100%) | A (0% ≤ substrate protein remaining % ≤ 80%) | A (0% ≤ substrate protein remaining % ≤ 80%)
